Source: ChEMBL document CHEMBL4376803, “Recent Advances in the Exploration of Therapeutic Analogues of Gramicidin S, an Old but Still Potent Antimicrobial Peptide” (J Med Chem, 2019)
Converted amounts (≈) assume the structure as drawn.

Key:
Enterococcus faecalis = assay: Antibacterial activity against Enterococcus faecalis C625 after overnight incubation by microtiter dilution method; assay type: functional
Escherichia coli = assay: Antibacterial activity against Escherichia coli DC2 after overnight incubation by microtiter dilution method; assay type: functional
Erythrocyte = assay: Haemolytic activity in human RBC after 4 hrs by visual method; assay type: ADME, cell-based
Staphylococcus aureus = assay: Antibacterial activity against Staphylococcus aureus K147 after overnight incubation by microtiter dilution method; assay type: functional
[1] = system: Staphylococcus epidermidis; assay: Antibacterial activity against Staphylococcus epidermidis C621 after 22 hrs by double dilution method; assay type: functional; details: C621, 22 h
Pseudomonas aeruginosa = assay: Antibacterial activity against Pseudomonas aeruginosa H188 after overnight incubation by microtiter dilution method; assay type: functional

CC(C)C[C@@H]1NC(=O)[C@H](CCCN)NC(=O)[C@H](C(C)C)NC(=O)[C@@H]2CC[C@@H]3CC[C@H](NC(=O)[C@H](CC(C)C)NC(=O)[C@@H](CCCN)NC(=O)[C@H](C(C)C)NC(=O)[C@@H]4CC[C@@H]5CC[C@H](NC1=O)C(=O)N54)C(=O)N32
MIC (Enterococcus faecalis): 25 µg/mL (≈ 24.7 µM)
MIC (Escherichia coli): 25 µg/mL (≈ 24.7 µM)
HC90 (Erythrocyte): 400 µg/mL
MIC (Staphylococcus aureus): 12.5 µg/mL (≈ 12.3 µM)
MIC [1]: 12.5 µg/mL (≈ 12.3 µM)
MIC (Pseudomonas aeruginosa): 12.5 µg/mL (≈ 12.3 µM)
